Assay results taken from patent US10138244B2, “Triazolopyrazinone derivative useful as a human PDE1 inhibitor” (Eli Lilly and Company, priority 2016, dated 2018).

What was measured:
Format in all cases: biochemical
[1] = molecular target: T1, human PDE9A (Homo sapiens, UniProt O76083); test: PDE enzyme assay using [3H]cGMP as substrate (SPA), PDE9A; details: human PDE9A 1 nM, [3H]cGMP 20 nM
T1 construct: full-length human PDE1A (NP_001003683.1), PDE1C (NP_005011.1), PDE5A (NP_001074.2), PDE7B (NP_061818.1) and PDE9A (NP_002597.1); HIS (N); made in house; host or cells: Sf9 (baculovirus, pFastBac1)
Text: (§1) The nucleotide sequences encoding full-length human PDE1A (NP_001003683.1), PDE1C (NP_005011.1), PDE5A (NP_001074.2), PDE7B (NP_061818.1) and PDE9A (NP_002597.1) are inserted into pFastBac1 (Invitrogen) vector with an N-terminal HIS tag. The nucleotide sequences encoding full-length human PDE4D (NP_006194.2) and catalytic domain (residue 641-1141) of PDE3A (NP_000912.3) are inserted into pFastBac1 (Invitrogen) vector with a C-terminal HIS tag. The nucleotide sequences encoding full-length human PDE8A (NP_002596.1) and PDE11A (AAI12394.1) are inserted into pFastBac1 (Invitrogen) vector with an N-terminal Flag tag. The nucleotide sequences encoding full-length human PDE10A (AAD32595.1) are inserted into pFastBac1 (Invitrogen) vector with a C-terminal Flag-His tag. […]
(§2) All 3′, 5′ cyclic nucleotide phosphodiesterase (PDE) enzyme activities are measured with a radiometric enzyme assay based on SPA detection system (scintillation proximity assay). […] Samples are read 12 hours later in a MICROBETA™ TRILUX® Counter. […] IC50 values are calculated by plotting the normalized data vs. log [compound] and fitting the data using a four parameter logistic equation.
(§3) The following phosphodiesterase activities are measured using [^3H]cGMP as reaction substrate: human PDE2A, human PDE5A, human PDE6A/6B, human PDE9A, human PDE10A and human PDE11A. […]

[2] = molecular target: T2, human PDE3A (catalytic domain) (Homo sapiens, UniProt Q14432); test: PDE enzyme assay using [3H]cAMP as substrate (SPA), PDE3A; details: human PDE3A catalytic domain 0.008 nM, [3H]cAMP 47 nM
T2 construct: catalytic domain (residue 641-1141) of PDE3A (NP_000912.3); HIS (C); made in house; host or cells: Sf9 (baculovirus, pFastBac1)
Text: as §1, §2
(§4) The following phosphodiesterase activities are measured using [^3H]cAMP as reaction substrate: human PDE3A (catalytic domain), human PDE4D, human PDE7B and human PDE8A. […]

[3] = molecular target: T3, human PDE5A (Homo sapiens, UniProt O76074); test: PDE enzyme assay using [3H]cGMP as substrate (SPA), PDE5A; details: human PDE5A 0.002 nM, [3H]cGMP 80 nM
T3 construct: full-length human PDE1A (NP_001003683.1), PDE1C (NP_005011.1), PDE5A (NP_001074.2); HIS (N); made in house; host or cells: Sf9 (baculovirus, pFastBac1)
Text: as §1, §2, §3

[4] = molecular target: T4, human PDE10A (Homo sapiens, UniProt Q9Y233); test: PDE enzyme assay using [3H]cGMP as substrate (SPA), PDE10A; details: human PDE10A 0.03 nM, [3H]cGMP 80 nM
T4 construct: encoding full-length human PDE10A (AAD32595.1); Flag-His (C); made in house; host or cells: Sf9 (baculovirus, pFastBac1)
Text: as §1, §2, §3

[5] = molecular target: T5, human PDE8A (Homo sapiens, UniProt O60658); test: PDE enzyme assay using [3H]cAMP as substrate (SPA), PDE8A; details: human PDE8A 0.06 nM, [3H]cAMP 47 nM
T5 construct: encoding full-length human PDE8A (NP_002596.1); Flag (N); made in house; host or cells: Sf9 (baculovirus, pFastBac1)
Text: as §1, §2, §4

[6] = molecular target: T6, human PDE11A (Homo sapiens, UniProt Q9HCR9); test: PDE enzyme assay using [3H]cGMP as substrate (SPA), PDE11A; details: human PDE11A 0.03 nM, [3H]cGMP 80 nM
T6 construct: full-length human PDE8A (NP_002596.1) and PDE11A (AAI12394.1); Flag (N); made in house; host or cells: Sf9 (baculovirus, pFastBac1)
Text: as §1, §2, §3

[7] = molecular target: T7, human PDE7B (Homo sapiens, UniProt Q9NP56); test: PDE enzyme assay using [3H]cAMP as substrate (SPA), PDE7B; details: human PDE7B 0.5 nM, [3H]cAMP 47 nM
T7 construct: full-length human PDE1A (NP_001003683.1), PDE1C (NP_005011.1), PDE5A (NP_001074.2), PDE7B (NP_061818.1); HIS (N); made in house; host or cells: Sf9 (baculovirus, pFastBac1)
Text: as §1, §2, §4

[8] = molecular target: T8, human PDE6A/6B (Homo sapiens, UniProt P16499+P35913); test: PDE enzyme assay using [3H]cGMP as substrate (SPA), PDE6A/6B dimer; details: human PDE6AB dimer 5 nM, [3H]cGMP 80 nM; read-out: IC50 (nM) PDE 6AB
T8 construct: encoding full-length human PDE6A (NP_000431.2) and PDE6B (AAH00249.1); HIS (N); Flag (N); made in house; host or cells: Sf9 (baculovirus, pFastBacDual)
Text: as §1, §2, §3

[9] = molecular target: T9, human PDE1C (Homo sapiens, UniProt Q14123); test: Ca2+-calmodulin dependent PDE enzyme assay (SPA), PDE1C; details: human PDE1C 0.0012 nM, [3H]cAMP 47 nM, calmodulin 6 U/ml; read-out: IC50 (nM) PDE 1C
T9 construct: full-length human PDE1A (NP_001003683.1), PDE1C (NP_005011.1); HIS (N); made in house; host or cells: Sf9 (baculovirus, pFastBac1)
Text: (§5) The nucleotide sequences encoding full-length human PDE1A (NP_001003683.1), PDE1C (NP_005011.1), PDE5A (NP_001074.2), PDE7B (NP_061818.1) and PDE9A (NP_002597.1) are inserted into pFastBac1 (Invitrogen) vector with an N-terminal HIS tag. The nucleotide sequences encoding full-length human PDE4D (NP_006194.2) and catalytic domain (residue 641-1141) of PDE3A (NP_000912.3) are inserted into pFastBac1 (Invitrogen) vector with a C-terminal HIS tag. The nucleotide sequences encoding full-length human PDE8A (NP_002596.1) and PDE11A (AAI12394.1) are inserted into pFastBac1 (Invitrogen) vector with an N-terminal Flag tag. The nucleotide sequences encoding full-length human PDE10A (AAD32595.1) are inserted into pFastBac1 (Invitrogen) vector with a C-terminal Flag-His tag. The nucleotide sequences encoding full-length human PDE6A (NP_000431.2) and PDE6B (AAH00249.1) are inserted into pFastBacDual (Invitrogen) vector with an N-terminal HIS tag and N-terminal Flag tag, respectively, for production of PDE6A/6B dimer. […]
as §2, with “equation. […]” for “equation.”

[10] = molecular target: T10, human PDE1B (Homo sapiens, UniProt Q01064); test: Ca2+-calmodulin dependent PDE enzyme assay (SPA), PDE1B; details: human PDE1B 0.074 nM, [3H]cAMP 47 nM, calmodulin 6 U/ml; read-out: IC50 (nM) PDE 1B
T10 construct: encoding full-length human PDE1B (NP_000915.1); HIS (C); made in house; host or cells: Sf9 (pIEX4)
Text: as §5
as §2, with “equation. […]” for “equation.”

[11] = molecular target: T11, human PDE4D (Homo sapiens, UniProt Q08499); test: PDE enzyme assay using [3H]cAMP as substrate (SPA), PDE4D; details: human PDE4D 0.021 nM, [3H]cAMP 47 nM
T11 construct: encoding full-length human PDE4D (NP_006194.2); HIS (C); made in house; host or cells: Sf9 (baculovirus, pFastBac1)
Text: as §1, §2, §4

[12] = molecular target: T12, human PDE2A (Homo sapiens, UniProt O00408); test: PDE enzyme assay using [3H]cGMP as substrate (SPA), PDE2A; details: human PDE2A 0.2 nM, [3H]cGMP 80 nM
T12 construct: full-length human PDE1B (NP_000915.1) and PDE2A (NP_002590.1); HIS (C); made in house; host or cells: Sf9 (pIEX4)
Text: as §1, §2, §3

[13] = molecular target: T13, human PDE1A (Homo sapiens, UniProt P54750); test: Ca2+-calmodulin dependent PDE enzyme assay (SPA), PDE1A; details: human PDE1A 0.25 nM, [3H]cAMP 47 nM, calmodulin 6 U/ml; read-out: IC50 (nM) PDE 1A
T13 construct: encoding full-length human PDE1A (NP_001003683.1); HIS (N); made in house; host or cells: Sf9 (baculovirus, pFastBac1)
Text: as §5
as §2, with “equation. […]” for “equation.”

T5 sequence (O60658 whole entry): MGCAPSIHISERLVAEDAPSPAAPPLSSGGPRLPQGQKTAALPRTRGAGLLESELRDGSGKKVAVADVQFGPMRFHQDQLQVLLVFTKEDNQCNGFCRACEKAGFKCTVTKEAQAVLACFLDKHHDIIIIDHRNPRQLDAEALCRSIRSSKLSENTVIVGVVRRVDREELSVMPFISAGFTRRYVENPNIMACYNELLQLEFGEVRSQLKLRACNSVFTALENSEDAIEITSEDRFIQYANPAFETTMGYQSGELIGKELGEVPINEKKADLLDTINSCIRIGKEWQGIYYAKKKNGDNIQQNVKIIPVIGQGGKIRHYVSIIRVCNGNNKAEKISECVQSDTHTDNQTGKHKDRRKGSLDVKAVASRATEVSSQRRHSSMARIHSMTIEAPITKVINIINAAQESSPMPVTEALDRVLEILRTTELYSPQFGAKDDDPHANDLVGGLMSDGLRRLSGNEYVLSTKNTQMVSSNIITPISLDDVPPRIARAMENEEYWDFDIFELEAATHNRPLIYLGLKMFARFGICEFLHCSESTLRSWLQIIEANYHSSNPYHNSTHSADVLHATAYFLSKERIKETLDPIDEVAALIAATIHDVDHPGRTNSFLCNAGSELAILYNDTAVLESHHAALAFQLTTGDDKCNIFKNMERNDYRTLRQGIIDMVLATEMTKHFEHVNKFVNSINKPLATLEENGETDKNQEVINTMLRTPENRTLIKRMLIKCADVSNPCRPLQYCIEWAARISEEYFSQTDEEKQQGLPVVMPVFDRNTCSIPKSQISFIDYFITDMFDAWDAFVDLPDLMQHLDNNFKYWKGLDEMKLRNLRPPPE
T12 sequence (O00408 whole entry): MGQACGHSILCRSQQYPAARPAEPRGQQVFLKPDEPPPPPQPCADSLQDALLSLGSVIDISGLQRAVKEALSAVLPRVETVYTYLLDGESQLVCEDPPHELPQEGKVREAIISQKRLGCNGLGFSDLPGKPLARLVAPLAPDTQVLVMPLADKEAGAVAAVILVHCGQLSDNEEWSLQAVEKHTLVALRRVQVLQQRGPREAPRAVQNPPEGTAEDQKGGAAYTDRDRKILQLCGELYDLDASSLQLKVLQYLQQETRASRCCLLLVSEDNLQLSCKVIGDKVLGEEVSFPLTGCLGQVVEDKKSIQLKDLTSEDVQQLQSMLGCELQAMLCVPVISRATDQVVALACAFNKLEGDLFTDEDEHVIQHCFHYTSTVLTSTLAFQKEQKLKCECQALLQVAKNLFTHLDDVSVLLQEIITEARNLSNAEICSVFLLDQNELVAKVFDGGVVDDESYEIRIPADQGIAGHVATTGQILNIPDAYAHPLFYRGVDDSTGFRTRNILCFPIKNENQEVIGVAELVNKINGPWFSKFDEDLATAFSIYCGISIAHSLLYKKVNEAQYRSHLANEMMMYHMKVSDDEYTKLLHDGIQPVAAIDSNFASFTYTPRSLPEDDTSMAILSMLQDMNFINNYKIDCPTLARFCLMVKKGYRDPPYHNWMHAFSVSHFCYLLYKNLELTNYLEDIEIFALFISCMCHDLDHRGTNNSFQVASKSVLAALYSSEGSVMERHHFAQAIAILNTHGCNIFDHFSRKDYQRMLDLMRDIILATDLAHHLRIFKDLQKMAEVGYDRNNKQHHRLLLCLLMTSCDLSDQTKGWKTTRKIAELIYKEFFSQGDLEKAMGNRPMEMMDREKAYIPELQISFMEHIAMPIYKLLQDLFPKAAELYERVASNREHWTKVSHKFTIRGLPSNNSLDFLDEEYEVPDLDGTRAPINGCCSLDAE
T8 sequence (P16499 whole entry): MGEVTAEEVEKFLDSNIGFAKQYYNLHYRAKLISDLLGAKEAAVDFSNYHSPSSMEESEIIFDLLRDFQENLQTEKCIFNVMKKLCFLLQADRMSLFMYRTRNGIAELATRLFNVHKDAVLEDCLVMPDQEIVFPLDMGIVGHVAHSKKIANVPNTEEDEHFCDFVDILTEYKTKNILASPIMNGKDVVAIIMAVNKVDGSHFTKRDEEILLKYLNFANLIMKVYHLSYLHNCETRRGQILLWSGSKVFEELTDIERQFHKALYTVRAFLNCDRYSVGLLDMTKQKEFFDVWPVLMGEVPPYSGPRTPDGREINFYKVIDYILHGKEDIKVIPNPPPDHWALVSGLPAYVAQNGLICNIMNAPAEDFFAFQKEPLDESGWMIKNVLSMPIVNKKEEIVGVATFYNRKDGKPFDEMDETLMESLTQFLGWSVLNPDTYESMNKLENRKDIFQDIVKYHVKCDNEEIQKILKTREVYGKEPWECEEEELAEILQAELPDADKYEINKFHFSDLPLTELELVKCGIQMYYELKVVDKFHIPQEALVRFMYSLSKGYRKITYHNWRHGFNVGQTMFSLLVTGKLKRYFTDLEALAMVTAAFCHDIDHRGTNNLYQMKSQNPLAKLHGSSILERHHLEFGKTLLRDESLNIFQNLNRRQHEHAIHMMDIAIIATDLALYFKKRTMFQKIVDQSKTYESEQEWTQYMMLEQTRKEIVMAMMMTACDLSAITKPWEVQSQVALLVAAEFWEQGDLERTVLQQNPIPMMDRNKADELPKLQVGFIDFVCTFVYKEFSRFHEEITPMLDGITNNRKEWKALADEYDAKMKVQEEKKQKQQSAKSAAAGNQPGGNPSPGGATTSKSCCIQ
T8 sequence (P35913 1-853 isoform P35913-2): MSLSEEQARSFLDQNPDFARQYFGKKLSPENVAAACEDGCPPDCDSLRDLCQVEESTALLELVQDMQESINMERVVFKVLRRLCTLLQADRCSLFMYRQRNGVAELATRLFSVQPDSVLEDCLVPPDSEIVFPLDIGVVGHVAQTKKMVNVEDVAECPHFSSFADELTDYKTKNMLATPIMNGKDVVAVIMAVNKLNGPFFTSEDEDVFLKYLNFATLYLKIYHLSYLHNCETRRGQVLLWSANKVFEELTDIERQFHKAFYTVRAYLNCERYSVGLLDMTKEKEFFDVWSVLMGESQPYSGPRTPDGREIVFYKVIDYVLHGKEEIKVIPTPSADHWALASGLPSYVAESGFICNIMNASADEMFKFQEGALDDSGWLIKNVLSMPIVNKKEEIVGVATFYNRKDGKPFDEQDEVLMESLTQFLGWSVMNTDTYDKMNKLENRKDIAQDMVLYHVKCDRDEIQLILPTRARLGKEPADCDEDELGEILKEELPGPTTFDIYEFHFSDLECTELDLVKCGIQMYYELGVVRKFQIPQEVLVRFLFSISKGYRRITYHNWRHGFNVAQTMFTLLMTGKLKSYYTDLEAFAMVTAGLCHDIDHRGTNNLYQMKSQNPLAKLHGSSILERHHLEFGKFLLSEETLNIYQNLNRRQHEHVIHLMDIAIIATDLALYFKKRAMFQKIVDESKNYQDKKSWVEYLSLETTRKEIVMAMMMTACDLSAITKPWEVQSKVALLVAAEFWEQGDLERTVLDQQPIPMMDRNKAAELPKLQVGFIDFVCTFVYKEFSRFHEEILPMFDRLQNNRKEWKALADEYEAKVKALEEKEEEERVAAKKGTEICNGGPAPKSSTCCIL
T11 sequence (Q08499 1-673 isoform Q08499-2): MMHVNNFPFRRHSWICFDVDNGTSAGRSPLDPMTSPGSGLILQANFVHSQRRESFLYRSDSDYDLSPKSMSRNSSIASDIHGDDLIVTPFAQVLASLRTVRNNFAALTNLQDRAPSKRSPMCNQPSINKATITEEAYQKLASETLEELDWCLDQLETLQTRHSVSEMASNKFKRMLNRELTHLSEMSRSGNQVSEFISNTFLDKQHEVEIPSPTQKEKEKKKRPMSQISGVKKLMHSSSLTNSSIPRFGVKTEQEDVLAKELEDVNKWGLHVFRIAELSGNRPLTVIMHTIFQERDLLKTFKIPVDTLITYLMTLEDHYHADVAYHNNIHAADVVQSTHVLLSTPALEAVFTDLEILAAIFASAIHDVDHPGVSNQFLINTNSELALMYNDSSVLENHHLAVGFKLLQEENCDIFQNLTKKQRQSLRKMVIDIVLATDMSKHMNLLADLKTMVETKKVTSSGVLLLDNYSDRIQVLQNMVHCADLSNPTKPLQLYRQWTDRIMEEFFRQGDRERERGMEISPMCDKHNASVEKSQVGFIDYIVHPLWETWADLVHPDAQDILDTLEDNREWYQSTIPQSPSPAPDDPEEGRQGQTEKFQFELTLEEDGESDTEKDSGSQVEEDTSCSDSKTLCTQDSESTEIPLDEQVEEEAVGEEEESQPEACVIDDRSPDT
T1 sequence (O76083 whole entry): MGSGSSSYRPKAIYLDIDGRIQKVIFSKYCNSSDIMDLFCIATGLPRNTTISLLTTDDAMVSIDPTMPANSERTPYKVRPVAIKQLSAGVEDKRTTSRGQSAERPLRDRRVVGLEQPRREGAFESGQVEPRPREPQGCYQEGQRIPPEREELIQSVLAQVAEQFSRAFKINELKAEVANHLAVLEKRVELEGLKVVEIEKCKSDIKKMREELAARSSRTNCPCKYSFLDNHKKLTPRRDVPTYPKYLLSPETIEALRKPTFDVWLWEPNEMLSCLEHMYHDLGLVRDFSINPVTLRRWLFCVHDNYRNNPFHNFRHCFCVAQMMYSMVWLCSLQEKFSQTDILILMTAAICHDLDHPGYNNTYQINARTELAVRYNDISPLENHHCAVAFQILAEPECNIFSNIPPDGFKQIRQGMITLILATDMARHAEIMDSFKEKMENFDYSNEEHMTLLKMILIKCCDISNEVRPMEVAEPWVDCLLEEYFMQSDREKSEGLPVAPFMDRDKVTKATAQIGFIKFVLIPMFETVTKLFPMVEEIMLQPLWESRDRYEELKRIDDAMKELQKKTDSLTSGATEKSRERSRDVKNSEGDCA

CCCCn1c(=O)c2nnc(C3(C)CC3)n2c2ncccc21 [Example 1, 5-butyl-9-(1-methylcyclopropyl)pyrido[3,2-e][1,2,4]triazolo[4,3-a]pyrazin-6(5H)-one]
IC50 [1]: > 10000 nM | IC50 [2]: > 100000 nM | IC50 [3]: 3130 nM | IC50 [4]: 9340 nM | IC50 [5]: > 10000 nM | IC50 [6]: 389 ± 179 nM | IC50 [7]: 4170 nM | IC50 [8]: 2460 ± 247 nM | IC50 [9]: 2.65 ± 0.9 nM | IC50 [10]: 16.3 ± 9.1 nM | IC50 [11]: 11900 ± 1580 nM | IC50 [12]: > 10000 nM | IC50 [13]: 10.9 ± 2.6 nM
